Assays:
[1] = Stability testing: storage in a closed container under air at 80° C., odevixibat content by HPLC; format: physicochemical; settings: for Odevixibat content (%): closed container under air at 80° C., HPLC
Procedure: Analyses were performed on an Agilent, Series 1100, equipped with an Agilent 1260 Infinity degasser. Column: Waters XSelcet CHS C18 (150×3 mm, 3.5 μm); Mobile phase A: 0.1% formic acid in water, mobile phase B: 0.1% formic acid in acetonitrile; Gradient 45% to 90% B; flow rate 0.425 mL/min; Acquisition time 35 minutes; Run time 42 minutes; Wave length: 283 nm; Column temperature 20° C. The Chromeleon Version 6.8 software was used.
Samples of amorphous odevixibat (purity ˜91%) and of crystal modification 1 of odevixibat (purity>99%; crystallinity 100%) were stored in a closed container under air at 80° C. The amount of odevixibat in the samples was determined by HPLC at the beginning of the experiment, and was again determined after 1, 2 and 4 weeks.

[2] = Dynamic vapour sorption (DVS) water uptake of crystal modification 1; format: physicochemical
Procedure: DVS measurements were performed with an SPS11-100n “Sorptions Prüfsystem” from ProUmid (formerly “Projekt Messtechnik”), August-Nagel-Str. 23, 89079 Ulm (Germany). About 20 mg of sample was used. Humidity change rates of 5% per hour were used. The sample was placed on an aluminum or platinum holder on top of a microbalance and allowed to equilibrate at 0% RH before starting the pre-defined humidity program: • (1) 5 h at 0% RH • (2) 0→95% RH (5%/h); 5 h at 95% RH • (3) 95→0% RH (5%/h); 5 h at 0% RH • (4) 0→95% RH (5%/h); 5 h at 95% RH • (5) 95→0% RH (5%/h); 5 h at 0% RH High-Performance Liquid Chromatography (HPLC) The water uptake of crystal modification 1 was measured using dynamic vapour sorption (DVS). […] After drying the sample at 0% RH and increasing the relative humidity, most of the water was taken back up to about 25% RH. This corresponds to a water content of about 3.5% (w/w). An additional 1.5% (w/w) of water was then taken up when the humidity was increased up to 95% RH. […] Crystal modification 1 therefore seems to require about 3.5% (w/w) of water, which corresponds to a sesquihydrate.

[3] = 0 weeks (beginning of the experiment)
[4] = after 4 weeks of storage at 80° C. under air

Odevixibat content (%) [1, 3] [%]	Odevixibat content (%) ([1]; 1 week)	Odevixibat content (%) ([1]; 2 weeks)	Odevixibat content (%) ([1]; 4 weeks)	decomposition [1, 4] [%]	change of purity [1, 4]	hygroscopicity ([2]; DVS, conclusion in words)	water content ([2]; after drying at 0% RH, water taken back up to about 25% RH)	maximum water uptake ([2]; at 95% RH, reversible)	water content ([2]; at about 30% relative humidity, based on the total crystal weight)	additional water uptake ([2]; humidity increased up to 95% RH (range 30-95% RH))	SMILES
91.1	90.9	91.04	90.8	0.3	–	–	–	–	–	–	CCCCC1(CCCC)CN(c2ccccc2)c2cc(SC)c(OCC(=O)N[C@@H](C(=O)N[C@@H](CC)C(=O)O)c3ccc(O)cc3)cc2S(=O)(=O)N1 [Amorphous odevixibat, 1,1-dioxo-3,3-dibutyl-5-phenyl-7-methylthio-8-(N—{(R)-α-[N—((S)-1-carboxypropyl)carbamoyl]-4-hydroxybenzyl}carbamoylmethoxy)-2,3,4,5-tetrahydro-1,2,5-benzothiadiazepine, reference compound]
99.13	99.15	99.18	99.24	–	had not changed	slightly hygroscopic	about 3.5 % (w/w)	about 5.0 % (w/w)	about 3.5 % (w/w)	1.5 % (w/w)	CCCCC1(CCCC)CN(c2ccccc2)c2cc(SC)c(OCC(=O)N[C@@H](C(=O)N[C@@H](CC)C(=O)O)c3ccc(O)cc3)cc2S(=O)(=O)N1 [crystal modification 1, 1,1-dioxo-3,3-dibutyl-5-phenyl-7-methylthio-8-(N—{(R)-α-[N—((S)-1-carboxypropyl)carbamoyl]-4-hydroxybenzyl}carbamoylmethoxy)-2,3,4,5-tetrahydro-1,2,5-benzothiadiazepine]
